The record followed here is patent publication EP4682146A1, “COMPOSITION INCLUDING NOVEL PYRIDOINDOLE DERIVATIVE COMPOUND AS ACTIVE INGREDIENT FOR PREVENTION OR TREATMENT OF NEURODEGENERATIVE DISEASES” (Neurotarge Co., Ltd., priority 2023, dated 2024).

Molecules are shown by their SMILES.

In general, IC50 refers to the point on the concentration scale where inhibition reaches its midpoint.

Assay [1] concerns the target T1, Tau-Synaptogyrin3 interaction (Homo sapiens, UniProt O43761+P10636).
T1 construct: expressed in transfected cells
As to the kind of experiment: Cell-based split luciferase (NanoBit) protein complementary assay for Tau-Synaptogyrin3 interaction in stable cell line HEK293T-TK252-1E2. As to conditions: HEK293T-TK252-1E2 cells, 48 hrs compound treatment, L/F value (luciferase activity/fluorescent intensity) compared to DMSO control. Here is the method: Live cell luciferase assay: Live cell luciferase activity was measured using NanoGlo® Live Cell Assay System (Cat# N2012. Promega, WI, USA), according to manufacturer's instruction. All microplate-based measurement was performed with BioTek Synergy H1 (Agilent. CA, USA).
For producing HEK293T-TK252 stable cell line for screening, BglII-linearized pTK252 was transfected to HEK293T cells. After 24 hrs transfection, the transfected cells were cultured in the culture media containing 1 µg/ml puromycin (10 mM in DMSO, Cat# J61278/ Alfa Aesar. ThermoFisher Korea, Seoul, Korea) for 9 days. Regular media change was performed in every 3 days with fresh puromycin of indicating concentration during the whole selection period. The selected cells were trypsinized and diluted to 5 cells/ml and seeded to 4x 96 well cell culture plates (100 µl/well), and cultured with the cell culture media containing 1 µg/ml puromycin for 11 days. 18 wells that contained only GFP-positive cells were selected for expansion, and cultured with the cell culture media containing 0.1-0.2 µg/ml puromycin for 14 days. 10 clones were discarded during the expansion due to emerging of non-GFP cells, and 8 clones were validated. The selected clone (1E2) was cultured with the cell culture media containing 0.5 µg/ml puromycin for further experiments.
3 µmol of 1,728 compounds were purchased from Otava Chemicals MB (Vilniaus, Lithuania), dissolved into 300 µl DMSO (10 mM) and stored at -80°C. 4x10^4 HEK293T-TK252-1E2 cells were seeded with 100 µl of the cell culture media into 96 white well cell culture plates (Cat# 30196. SPL, Seoul, Korea), 48 hrs prior to compound treatment. For 10 µM compound treatment, 10 mM compound stock was diluted to 50 µM with the cell culture media, and 25 µl of the diluted compound was added to the designated wells of the 96 well plates. For dose-response experiments, the amount of compounds for dilution was adjusted to fit the volume indicated above. After 48 hrs compound treatment, the cells were washed once with OptiMEM and live cell luciferase activity, fluorescent intensity and fluorescence area scan was measured.
1,728 compounds were treated at 10 µM to HEK293T-TK252-1E2 cells and incubated for 48 hrs. […] Single wash step with culture media without FBS was included before measurement to discard dead cells and to remove FBS that affects luciferase assay. […] Fluorescent intensity was taken for normalization, which is expected to be proportion to the cell number at the measuring point. L/F value which is luciferase activity normalized with fluorescent intensity (L/F = Luciferase activity/ Fluorescent intensity) was calculated for all measurements and compared to L/F value of DMSO controls to calculated the size of inhibitory effect. […] Fluorescence area scan (FA) performed right after luciferase activity and fluorescent intensity measurement, to validate total remaining fluorescent cells in a well as a proxy to the cellular toxicity. FA value was in proportion to WST assay results (data not shown), and average CV of triplicates of all measurements was 0.04.
61 compounds were further tested for dose-response profile, based on inhibitory effect that was measured by L/F value (<60%) and FA-based cell viability (>90%) at 10 µM compared to DMSO control. 10 compounds were considered as hit compounds through three times of reproduction.

In assay [2] the test system is Tau-Synaptogyrin3 interaction. The assay is described as follows: Tau competition assay with phloretin-inducible Tau expression in HEK293T-TK252 clones, luciferase activity. Format: cell-based, Human. As to conditions: clone 1E2 co-transfected with pTK269 and pTK285, 0, 10 and 50 µM phloretin, 48 hours. As to the method:
• FIG. 1 is a fluorescence microscopy image of the HEK293T cell line transfected with EGFP-fused Tau (pTK231: P(CMV)-Tau-EGFP) and Synaptogyrin 3 (pTK233:P(CMV)-EGFP-Synaptogyrin 3), showing the expression of both proteins 48 hours after transfection. • FIG. 2a is a schematic of the Protein Complementary Assay (PCA) process using the split luciferase method. Split luciferase consists of two fragments of the luciferase enzyme: a small bit (sBit) and a large bit (Lbit). […] Therefore, by fusing each fragment of the split luciferase to Tau and Synaptogyrin3, luciferase activity may be induced as a result of the interaction between Tau and Synaptogyrin3. […] The system includes a synthetic transcriptional activator, TtgA, and a synthetic promoter, PTtgR, prepared based on the flavonoid-regulated TtgR operon of the Pseudomonas putida DOT-T1E strain. In the absence of phloretin, TtgA binds to PTtgR and activates transcription (without phloretin), while in the presence of phloretin, TtgA dissociates from DNA and transcription is not activated (with phloretin). […]
Live cell luciferase assay: Live cell luciferase activity was measured using NanoGlo® Live Cell Assay System (Cat# N2012. Promega, WI, USA), according to manufacturer's instruction. […]

In assay [3] the test system is TtgA / PTtgR phloretin-inducible gene expression system. The assay is described as follows: Phloretin-regulated EGFP expression (pTK269: PCAG-TtgA and pTK274: PTtgR-EGFP) in HEK293T. In kind it is cell-based, Human. The settings on record: HEK293T co-transfected with pTK269 and pTK274, 0 - 50 µM phloretin, 48 hours. As to the method:
• FIG. 1 is a fluorescence microscopy image of the HEK293T cell line transfected with EGFP-fused Tau (pTK231: P(CMV)-Tau-EGFP) and Synaptogyrin 3 (pTK233:P(CMV)-EGFP-Synaptogyrin 3), showing the expression of both proteins 48 hours after transfection. • FIG. 2a is a schematic of the Protein Complementary Assay (PCA) process using the split luciferase method. Split luciferase consists of two fragments of the luciferase enzyme: a small bit (sBit) and a large bit (Lbit). […] Therefore, by fusing each fragment of the split luciferase to Tau and Synaptogyrin3, luciferase activity may be induced as a result of the interaction between Tau and Synaptogyrin3. […] The system includes a synthetic transcriptional activator, TtgA, and a synthetic promoter, PTtgR, prepared based on the flavonoid-regulated TtgR operon of the Pseudomonas putida DOT-T1E strain. In the absence of phloretin, TtgA binds to PTtgR and activates transcription (without phloretin), while in the presence of phloretin, TtgA dissociates from DNA and transcription is not activated (with phloretin). […] In the stable cell line HEK293T-TK252 expressing Lbit-Tau and sBit-Synaptogyrin3, expression of Tau protein to which split luciferase is not fused, can lead to a decrease in luciferase signal. […]

T1 sequence (P10636 1-441 isoform P10636-8): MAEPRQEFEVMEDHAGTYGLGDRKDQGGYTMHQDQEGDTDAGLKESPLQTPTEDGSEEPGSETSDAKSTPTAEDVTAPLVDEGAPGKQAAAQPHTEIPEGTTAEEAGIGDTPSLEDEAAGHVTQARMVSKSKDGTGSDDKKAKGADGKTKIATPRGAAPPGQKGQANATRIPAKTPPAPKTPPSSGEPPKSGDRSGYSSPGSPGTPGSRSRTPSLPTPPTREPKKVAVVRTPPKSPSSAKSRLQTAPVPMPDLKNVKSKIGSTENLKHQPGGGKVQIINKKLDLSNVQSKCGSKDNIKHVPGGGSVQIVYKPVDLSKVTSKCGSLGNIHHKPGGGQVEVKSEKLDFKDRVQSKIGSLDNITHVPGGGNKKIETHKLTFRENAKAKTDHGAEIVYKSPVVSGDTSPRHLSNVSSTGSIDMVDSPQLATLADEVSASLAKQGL
T1 sequence (O43761 whole entry): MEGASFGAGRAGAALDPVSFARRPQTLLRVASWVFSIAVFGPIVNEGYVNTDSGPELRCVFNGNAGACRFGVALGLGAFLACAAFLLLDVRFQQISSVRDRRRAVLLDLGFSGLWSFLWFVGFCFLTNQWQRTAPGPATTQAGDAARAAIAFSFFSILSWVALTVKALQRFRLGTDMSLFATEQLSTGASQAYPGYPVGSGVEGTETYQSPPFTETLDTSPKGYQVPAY

With `Cc1ccc(C(=O)N2CCc3[nH]c4ccc(-c5ccc(C6CCCCC6)cc5)cc4c3C2)cn1` [Formula 67, (8-(4-Cyclohexylphenyl)-1,3,4,5-tetrahydro-2H-pyrido[4,3-b]indol-2-yl)(6-methylpyridin-3-yl)methanone], the IC50 in assay [1] lay within 3 to 12 µM.

In the case of `Cc1ccc2[nH]c3c(c2c1)CN(C(=O)c1ccccc1)CC3` [Formula 68, (8-methyl-1,3,4,5-tetrahydro-2H-pyrido[4,3-b]indol-2-yl)(phenyl)methanone], in assay [1], the IC50 is 3 to 12 µM.

On to `Cc1ccc(-c2ccc3[nH]c4c(c3c2)CN(C(=O)c2ccc(N(C)C)cc2)CC4)cc1` [Formula 69, (4-(Dimethylamino)phenyl)(8-(p-tolyl)-1,3,4,5-tetrahydro-2H-pyrido[4,3-b]indol-2-yl)methanone], for which, in assay [1], the concentration for half-maximal inhibition (IC50) lay in the range of 3 to 12 µM.

With `O=C(c1ccccc1)N1CCc2[nH]c3ccc(-c4ccc(Cl)cc4)cc3c2C1` [Formula 70, (8-(4-chlorophenyl)-1,3,4,5-tetrahydro-2H-pyrido[4,3-b]indol-2-yl)(phenyl)methanone], in assay [1], the IC50 is under 3 µM.

Turning to `O=C(c1ccccc1)N1CCc2[nH]c3ccc(-c4ccc([N+](=O)[O-])cc4)cc3c2C1` [Formula 71, (8-(4-nitrophenyl)-1,3,4,5-tetrahydro-2H-pyrido[4,3-b]indol-2-yl)(phenyl)methanone], the IC50 in assay [1] was under 3 µM.

For `Nc1ccc(-c2ccc3[nH]c4c(c3c2)CN(C(=O)c2ccccc2)CC4)cc1` [Formula 72, (8-(4-Aminophenyl)-1,3,4,5-tetrahydro-2H-pyrido[4,3-b]indol-2-yl)(phenyl)methanone], the half-maximal inhibitory concentration (IC50) in assay [1] was under 3 µM.

For the molecule `CN(C)c1ccc(-c2ccc3[nH]c4c(c3c2)CN(C(=O)c2ccccc2)CC4)cc1` [Formula 73, (8-(4-(Dimethylamino)phenyl)-1,3,4,5-tetrahydro-2H-pyrido[4,3-b]indol-2-yl)(phenyl)methanone], the IC50 in assay [1] is 3 to 12 µM.

With `Cc1ccc(-c2ccc3[nH]c4c(c3c2)CN(C(=S)Nc2ccccc2)CC4)cc1` [Formula 74, N-phenyl-8-(p-tolyl)-1,3,4,5-tetrahydro-2H-pyrido[4,3-b]indole-2-carbothioamide], the IC50 in assay [1] fell in the range of 3 to 12 µM.

As to `Cc1ccc(-c2ccc3[nH]c4c(c3c2)CN(C(=O)Nc2ccccc2)CC4)cc1` [Formula 75, N-phenyl-8-(p-tolyl)-1,3,4,5-tetrahydro-2H-pyrido[4,3-b]indole-2-carboxamide], the 50% inhibitory concentration (IC50) in assay [1] fell in the range of 12 to 25 µM.

As to `Cc1ccc(NC(=S)N2CCc3[nH]c4ccc(-c5ccc(C)cc5)cc4c3C2)cc1` [Formula 76, N,8-di-p-tolyl-1,3,4,5-tetrahydro-2H-pyrido[4,3-b]indole-2-carbothioamide], the IC50 in assay [1] is 3 to 12 µM.

Take `Cc1ccc(-c2ccc3[nH]c4c(c3c2)CN(C(=S)Nc2ccc(C#N)cc2)CC4)cc1` [Formula 77, N-(4-cyanophenyl)-8-(p-tolyl)-1,3,4,5-tetrahydro-2H-pyrido[4,3-b]indole-2-carbothioamide]: in assay [1], the IC50 lay in the range of 12 to 25 µM.

Take `O=C(CCc1ccc(O)cc1)c1c(O)cc(O)cc1O` [phloretin]: the “luciferase activity, difference between 0 and 50 µM treatment” value in assay [2] is on record as 2 fold. Besides, in assay [3], the “EGFP signal, difference between 0 and 50 µM treatment” value worked out at 4 fold.
